We go through five molecules from article PMC11284802 (Journal of Medicinal Chemistry, 2024).

Each structure is given as a SMILES string.

Series [1] has as its system mouse hepatitis virus (MHV). Nature of the series: MHV assay. It counts as cell-based.
Series [2] can be described thus: Mouse liver microsomal stability. The series is classed as in vitro ADME. Conditions: male, CD-1, mouse, liver microsomes, pH 7.4. (Liver microsomes are a subcellular fraction often used to study metabolism.)
The nature of series [3]: Human liver microsomal CLint. It counts as in vitro ADME. Conditions: liver microsomes.
Series [4] in a line: Mouse hepatocyte stability. The series is classed as in vitro ADME. Conditions: male, CD-1, mouse, cryopreserved hepatocytes.
Series [5] can be described thus: Human hepatocyte stability. The series is classed as in vitro ADME. To be noted: cryopreserved hepatocytes.
The test system of series [6] is phosphorylation of CSNK2 substrate EIF2S2. Nature of the series: Inhibition of EIF2S2 phosphorylation in vitro. The series is classed as cell-based, human. Conditions: A549-ACE2 cells, 1 or 5 μM, 24 h.
Another series concerns A549-ACE2 cells. The series can be described thus: LDH cytotoxicity assay. To be noted: concentrations below 10 μM. It counts as cell-based, human.
Another series can be described thus: Plasma stability. To be noted: human plasma, 37 °C, 0 and 6 h. The series is classed as in vitro ADME.
The test system of another series is EIF2S2 (phospho-Ser2). Nature of the series: In vivo CSNK2 inhibition. Conditions: 10 mg/kg i.p. b.i.d., 36 h, vs vehicle. Set-up: species or system CD-1 mice.
Another series concerns AKT (phospho-Ser129). Nature of the series: In vivo CSNK2 inhibition. Details: species or system CD-1 mice. Conditions: 10 mg/kg i.p. b.i.d., 36 h, vs vehicle.
Series [7] concerns the target T1, DYRK1A (Homo sapiens, UniProt Q13627). The series can be described thus: NanoBRET dose-response, off-target kinase. To be noted: poor assay window. It counts as cell-based.
A further series deals with DAPK2 (Homo sapiens, UniProt Q9UIK4). Nature of the series: NanoBRET K192 panel. The series is classed as cell-based. Conditions: read-out: NanoBRET K192 % occupancy at 10 μM, DAPK2.
The target in another series is T2, HIPK4 (Homo sapiens, UniProt Q8NE63).
T2 sequence (Q8NE63 1-616): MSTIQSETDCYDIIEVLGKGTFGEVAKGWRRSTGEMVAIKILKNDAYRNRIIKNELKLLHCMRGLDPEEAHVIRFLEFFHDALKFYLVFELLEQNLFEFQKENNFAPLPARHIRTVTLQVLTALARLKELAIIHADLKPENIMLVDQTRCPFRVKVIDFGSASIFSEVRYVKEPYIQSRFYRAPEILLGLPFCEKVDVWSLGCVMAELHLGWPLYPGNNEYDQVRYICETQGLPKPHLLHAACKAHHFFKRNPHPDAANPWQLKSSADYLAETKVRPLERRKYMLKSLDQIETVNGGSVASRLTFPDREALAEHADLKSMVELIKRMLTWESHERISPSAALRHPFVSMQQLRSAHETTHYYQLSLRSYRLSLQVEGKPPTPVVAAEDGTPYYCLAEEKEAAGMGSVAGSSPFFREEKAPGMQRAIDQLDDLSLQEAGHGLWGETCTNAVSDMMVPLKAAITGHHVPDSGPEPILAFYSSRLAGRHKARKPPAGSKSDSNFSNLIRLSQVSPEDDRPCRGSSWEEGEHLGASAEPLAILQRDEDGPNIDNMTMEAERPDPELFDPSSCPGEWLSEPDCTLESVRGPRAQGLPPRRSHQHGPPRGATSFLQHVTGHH
The series can be described thus: NanoBRET K192 panel. The series is classed as cell-based. To be noted: read-out: NanoBRET K192 % occupancy at 10 μM, HIPK4.

The target of another series is CLK4 (Homo sapiens, UniProt Q9HAZ1). Nature of the series: NanoBRET K192 panel. The series is classed as cell-based. To be noted: read-out: NanoBRET K192 % occupancy at 10 μM, CLK4.
The target of another series is PHKG1 (Homo sapiens, UniProt Q16816). Nature of the series: NanoBRET K192 panel. The series is classed as cell-based. To be noted: read-out: NanoBRET K192 % occupancy at 10 μM, PHKG1.
Series [8] has as its target T1, DYRK1A. The series can be described thus: NanoBRET K192 panel. It counts as cell-based. To be noted: read-out: NanoBRET K192 % occupancy at 10 μM, DYRK1A. (In general: Bioluminescence resonance energy transfer reports proximity on the nanometre scale.)

DAPK2, sequence (Q9UIK4 whole entry): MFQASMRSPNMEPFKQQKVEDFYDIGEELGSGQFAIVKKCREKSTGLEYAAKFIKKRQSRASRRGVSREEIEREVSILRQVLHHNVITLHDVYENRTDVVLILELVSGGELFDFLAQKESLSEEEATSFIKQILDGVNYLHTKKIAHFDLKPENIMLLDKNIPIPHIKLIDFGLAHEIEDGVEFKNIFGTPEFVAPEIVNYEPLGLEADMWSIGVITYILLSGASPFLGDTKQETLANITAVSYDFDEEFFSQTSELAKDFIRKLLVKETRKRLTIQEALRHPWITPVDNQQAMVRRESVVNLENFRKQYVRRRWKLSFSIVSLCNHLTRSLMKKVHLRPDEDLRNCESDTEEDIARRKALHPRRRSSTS
PHKG1, sequence (Q16816 whole entry): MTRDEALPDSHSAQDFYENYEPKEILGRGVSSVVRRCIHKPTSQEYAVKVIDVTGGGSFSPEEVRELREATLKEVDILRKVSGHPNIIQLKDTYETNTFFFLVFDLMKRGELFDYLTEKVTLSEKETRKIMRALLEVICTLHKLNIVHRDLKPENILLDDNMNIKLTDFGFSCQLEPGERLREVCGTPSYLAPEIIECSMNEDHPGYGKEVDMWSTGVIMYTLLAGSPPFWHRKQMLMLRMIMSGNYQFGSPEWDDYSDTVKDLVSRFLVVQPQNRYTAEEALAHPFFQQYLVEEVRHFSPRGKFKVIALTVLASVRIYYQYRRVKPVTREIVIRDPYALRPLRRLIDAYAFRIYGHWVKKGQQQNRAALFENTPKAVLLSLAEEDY
CLK4, sequence (Q9HAZ1 whole entry): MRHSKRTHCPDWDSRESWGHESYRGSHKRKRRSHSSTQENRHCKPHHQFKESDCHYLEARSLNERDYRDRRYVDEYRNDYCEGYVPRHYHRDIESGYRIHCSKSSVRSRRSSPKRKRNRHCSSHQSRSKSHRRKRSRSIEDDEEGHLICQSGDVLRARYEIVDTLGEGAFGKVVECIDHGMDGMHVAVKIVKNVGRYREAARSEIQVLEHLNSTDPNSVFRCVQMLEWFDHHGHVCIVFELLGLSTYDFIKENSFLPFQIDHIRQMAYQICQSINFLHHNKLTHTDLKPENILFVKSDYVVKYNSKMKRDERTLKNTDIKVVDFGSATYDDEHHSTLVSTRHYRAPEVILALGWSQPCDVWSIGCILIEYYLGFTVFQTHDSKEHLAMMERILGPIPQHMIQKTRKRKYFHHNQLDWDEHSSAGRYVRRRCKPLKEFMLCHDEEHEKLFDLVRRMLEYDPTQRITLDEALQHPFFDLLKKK

On to `CN[C@H]1CCCN(c2ccc(Nc3cc(NC4CC4)n4ncc(C#N)c4n3)cc2-n2cnnc2)C1` [Compound 69, (S)-7-(Cyclopropylamino)-5-((4-(3-(methylamino)piperidin-1-yl)-3-(4H-1,2,4-triazol-4-yl)phenyl)amino)pyrazolo[1,5-a]pyrimidine-3-carbonitrile], for which the “fold decrease in MHV potency” value in [1] (relative to 68) amounted to 3 fold.
For `CC(=O)Nc1cccc(Nc2cc(NC3CC3)n3ncc(C#N)c3n2)c1` [Compound 3, N-(3-((3-Cyano-7-(cyclopropylamino)pyrazolo[1,5-a]pyrimidin-5-yl)amino)phenyl)acetamide], in series [2], the amount remaining (in general, the share of the starting amount still present when the sample was taken) at 0.5 h, 5 μM came out at 22%. Besides, in series [3], the CLint scaled – broadly, the rate of metabolic loss divided by the concentration – at 1 h is 25 mL/min/kg. Further, the intrinsic metabolic clearance (CLint scaled) at 2 h, 1 µM in series [4] came out at 520 mL/min/kg; in [5], 58 mL/min/kg.
`O=c1nc(NO)ccn1[C@@H]1O[C@H](CO)[C@@H](O)[C@H]1O` [EIDD-1931, reference compound]: the 50% inhibitory concentration (IC50) – broadly, the concentration needed to halve the response being measured – in series [1] (read-out: MHV IC50, positive control of the assay) was found to be 1200 nM.
Molecule `N#Cc1cnn2c(NC3CC3)cc(Nc3cccc(-n4cnnc4)c3)nc12` [Compound 14, 5-((3-(4H-1,2,4-Triazol-4-yl)phenyl)amino)-7-(cyclopropylamino)pyrazolo[1,5-a]pyrimidine-3-carbonitrile] displayed a fraction remaining at 0.5 h, 5 μM in [2] of 74%. In series [3], this molecule gave a CLint scaled at 1 h of 7.6 mL/min/kg. Also, the CLint scaled at 2 h, 1 µM was determined as 160 mL/min/kg in series [4] and 16 mL/min/kg in [5].
As for `CCN(CCN)c1ccc(Nc2cc(NC3CC3)n3ncc(C#N)c3n2)cc1-n1cnnc1` [Compound 53, 5-((4-((2-Aminoethyl)(ethyl)amino)-3-(4H-1,2,4-triazol-4-yl)phenyl)amino)-7-(cyclopropylamino)pyrazolo[1,5-a]pyrimidine-3-carbonitrile], the “phosphorylation levels of CSNK2 substrate EIF2S2” value in [6] is reported as “reduction in phosphorylation levels”. The “cell viability by LDH assay” value in the series on A549-ACE2 cells is “No decrease in cell viability”. Besides, in the series “Plasma stability”, the plasma stability entry was “stable in plasma”. For the same molecule, the “phosphorylation of Ser2 of EIF2S2 in mouse lung” value with EIF2S2 (phospho-Ser2) is “no statistically significant reduction”. In addition, the “phosphorylation of Ser129 of AKT in mouse lung” value with AKT (phospho-Ser129) was “no statistically significant reduction”. For the same molecule, the “DYRK1A NanoBRET dose-response occupancy” value on DYRK1A [7] is listed as “d Poor assay window observed but no occupancy observed up to 3 μM. n.d. = not determined”. Moreover, the receptor occupancy at 10 µM on DAPK2, on HIPK4, at CLK4, on PHKG1 and on DYRK1A [8] was 50 to 75% in each case.
